“And” between values parts separate entries of the source, which are not always exact repeats. Equal entries are not always repeated. Inconclusive results and toxic doses are left out. The calls were made as follows: active = survival T/C of 150% or more; inactive = T/C below 125% in these data.
Test system: P388 leukemia ip, CD2F1 mice, survival T/C
Assay: NCI In Vivo Anticancer Drug Screen. Data for tumor model P388 Leukemia (intraperitoneal) in CD2F1 (CDF1) mice
Details: endpoint: median survival time, higher = longer survival
Outline: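 Mice carrying the transplanted tumor received test compound or vehicle. Survival was recorded in each group, and the value is the treated-group measurement divided by that of the vehicle-treated control group.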

[1] = dose: 50.0 mg/kg/injection, schedule: Q01DX005 (ip), vehicle: saline with Tween-80
[2] = dose: 100.0 mg/kg/injection, schedule: Q01DX005 (ip), vehicle: saline with Tween-80
[3] = dose: 200.0 mg/kg/injection, schedule: Q01DX005 (ip), vehicle: saline with Tween-80
[4] = dose: 50.0 mg/kg/injection, schedule: Q01DX009 (ip), vehicle: saline
[5] = dose: 100.0 mg/kg/injection, schedule: Q01DX009 (ip), vehicle: saline
[6] = dose: 200.0 mg/kg/injection, schedule: Q01DX009 (ip), vehicle: saline
[7] = dose: 60.0 mg/kg/injection, schedule: Q01DX005 (ip), vehicle: saline with Tween-80
[8] = dose: 120.0 mg/kg/injection, schedule: Q01DX005 (ip), vehicle: saline with Tween-80
[9] = dose: 240.0 mg/kg/injection, schedule: Q01DX005 (ip), vehicle: saline with Tween-80
[10] = dose: 50.0 mg/kg/injection, schedule: Q01DX009 (ip), vehicle: Klucel (hydroxypropylcellulose) (HPC)
[11] = dose: 100.0 mg/kg/injection, schedule: Q01DX009 (ip), vehicle: Klucel (hydroxypropylcellulose) (HPC)
[12] = dose: 200.0 mg/kg/injection, schedule: Q01DX009 (ip), vehicle: Klucel (hydroxypropylcellulose) (HPC)
[13] = dose: 50.0 mg/kg/injection, schedule: Q01DX009 (ip), vehicle: saline with Tween-80
[14] = dose: 100.0 mg/kg/injection, schedule: Q01DX009 (ip), vehicle: saline with Tween-80
[15] = dose: 200.0 mg/kg/injection, schedule: Q01DX009 (ip), vehicle: saline with Tween-80

Measured: T/C

O=c1c2[nH]c3ccccc3sc=2c(=O)n1-c1cccc(C(F)(F)F)c1
inactive: [1] 104 % of control | [2] 100 % of control | [3] 101 % of control

Oc1cncc2ncccc12
inactive: [4] 106 % of control | [5] 100 % of control | [6] 100 % of control

CCc1c(OC)c(C#N)c2n(C)c3cc(C)c(C)cc3n2c1=O
inactive: [7] 87 % of control | [8] 90 % of control | [9] 93 % of control

O=C1C=CC(Cc2ccccc2)N1C(=O)c1ccccc1 (centres undefined)
inactive: [1] 99 % of control | [2] 100 % of control | [3] 97 % of control

COC(=O)c1nc2n[nH]c(N)c2c2c1CCCCCCCCCC2
inactive: [7] 99 % of control | [8] 93 % of control | [9] 94 % of control

COC(=O)OC(C#N)c1ccccc1[N+](=O)[O-] (centres undefined)
inactive: dose: 1.56 mg/kg/injection, schedule: Q01DX009 (ip), vehicle: saline 88 % of control | dose: 3.12 mg/kg/injection, schedule: Q01DX009 (ip), vehicle: saline 98 % of control | dose: 6.25 mg/kg/injection, schedule: Q01DX009 (ip), vehicle: saline 105 % of control | dose: 6.25 mg/kg/injection, schedule: Q01DX009 (ip), vehicle: suspension in saline 88 % of control | [6] 94 % of control

Cc1nc2c(Br)cc(Br)cc2c(=O)n1CC(=O)NNC(N)=S
inactive: [10] 95 % of control | [11] 104 % of control | [12] 101 % of control

CC1(C)OC(=O)C(Cc2c[nH]c3ccccc23)C(=O)O1
inactive: [13] 108 % of control | [14] 100 % of control | [15] 94 % of control

Cc1ccc(N2C(=O)CC3(CCCCC3)C2=O)c(C)c1
inactive: [10] 105 % of control | [11] 109 % of control | [12] 103 % of control

CC1=CC(=O)[C@@H](O)[C@]2(C)[C@H]3[C@@]4(O)OC[C@]35[C@H]([C@@H](CO)[C@H]4O)[C@@H](OC3OC(CO)C(O)C(O)C3O)C(=O)O[C@@H]5C[C@@H]12 (some centres undefined)
inactive: dose: 0.25 mg/kg/injection, schedule: Q01DX005 (ip), vehicle: Klucel (hydroxypropylcellulose) (HPC) 99 % of control | dose: 0.5 mg/kg/injection, schedule: Q01DX005 (ip), vehicle: Klucel (hydroxypropylcellulose) (HPC) 99 % of control | dose: 1.0 mg/kg/injection, schedule: Q01DX005 (ip), vehicle: Klucel (hydroxypropylcellulose) (HPC) 98 % of control | dose: 1.87 mg/kg/injection, schedule: Q01DX005 (ip), vehicle: Klucel (hydroxypropylcellulose) (HPC) 96 % of control | dose: 2.0 mg/kg/injection, schedule: Q01DX005 (ip), vehicle: Klucel (hydroxypropylcellulose) (HPC) 100 % of control

ClC1=NC(Cl)C(Cl)=N/C1=N\c1ncn[nH]1 (centres undefined)
inactive: dose: 4.4 mg/kg/injection, schedule: Q04DX003 (ip), vehicle: saline with Tween-80 100 % of control | dose: 6.6 mg/kg/injection, schedule: Q04DX003 (ip), vehicle: saline with Tween-80 100 % of control | dose: 10.0 mg/kg/injection, schedule: Q04DX003 (ip), vehicle: saline with Tween-80 90 % of control | dose: 15.0 mg/kg/injection, schedule: Q04DX003 (ip), vehicle: saline with Tween-80 104 % of control

CCN(CC)C/C=C(/C)CCC=C(C)C
inactive: dose: 5.0 mg/kg/injection, schedule: Q04DX002 (ip), vehicle: saline with Tween-80 103 % of control | dose: 10.0 mg/kg/injection, schedule: Q04DX002 (ip), vehicle: saline with Tween-80 99 % of control | dose: 20.0 mg/kg/injection, schedule: Q04DX002 (ip), vehicle: saline with Tween-80 95 % of control

CSC(=S)c1c(O)ccc2ccccc12
inactive: dose: 100.0 mg/kg/injection, schedule: Q04DX002 (ip), vehicle: saline with Tween-80 102 % of control

O=C1CCCCCC1c1ccccc1 (centres undefined)
inactive: dose: 100.0 mg/kg/injection, schedule: Q04DX003 (ip), vehicle: saline with Tween-80 104 % of control | dose: 200.0 mg/kg/injection, schedule: Q04DX003 (ip), vehicle: saline with Tween-80 104 % of control | dose: 400.0 mg/kg/injection, schedule: Q04DX003 (ip), vehicle: saline with Tween-80 109 % of control

[Cu+2].[NH-]C(=O)NC([NH-])=O.[NH-]C(=O)NC([NH-])=O
inactive: dose: 6.25 mg/kg/injection, schedule: Q01DX005 (ip), vehicle: saline with Tween-80 99 % of control | dose: 12.5 mg/kg/injection, schedule: Q01DX005 (ip), vehicle: saline with Tween-80 99 % of control

CCOC(=O)c1nc(SC)n(C)c1C(=O)OCC
inactive: [7] 100 % of control | [8] 100 % of control | [9] 105 % of control

O=[N+]([O-])C1(Br)COC(c2cccc(O)c2)OC1 (centres undefined)
inactive: dose: 3.12 mg/kg/injection, schedule: Q01DX009 (ip), vehicle: saline with Tween-80 99 % of control | dose: 6.25 mg/kg/injection, schedule: Q01DX009 (ip), vehicle: saline with Tween-80 97 % of control | dose: 12.5 mg/kg/injection, schedule: Q01DX009 (ip), vehicle: saline with Tween-80 111 % of control and 94 % of control

CCOC(=O)/C(=N\N=P(N(C)C)(N(C)C)N(C)C)[As](C)C
inactive: [4] 103 % of control | [5] 99 % of control

COC1CCC2(C)C(=CCC3C2CCC2(C)C(OCCOS(=O)(=O)c4ccc(C)cc4)CCC32)C1 (centres undefined)
inactive: dose: 100.0 mg/kg/injection, schedule: Q01DX001 (ip), vehicle: saline with Tween-80 101 % of control | dose: 200.0 mg/kg/injection, schedule: Q01DX001 (ip), vehicle: saline with Tween-80 106 % of control | dose: 400.0 mg/kg/injection, schedule: Q01DX001 (ip), vehicle: saline with Tween-80 100 % of control

S=C(c1c(Cl)cccc1Cl)N1CN2CCCN(C2)C1
inactive: [13] 111 % of control | [14] 98 % of control | [15] 101 % of control

Nc1ccc(SCCOC(c2ccccc2)(c2ccccc2)c2ccccc2)cc1
inactive: dose: 100.0 mg/kg/injection, schedule: Q04DX003 (ip), vehicle: saline 101 % of control | dose: 200.0 mg/kg/injection, schedule: Q04DX003 (ip), vehicle: saline 99 % of control | dose: 400.0 mg/kg/injection, schedule: Q04DX003 (ip), vehicle: saline 102 % of control

CC(C)(C)c1cc(C2C(C#N)C(=O)NC(=O)C2C#N)cc(C(C)(C)C)c1O (centres undefined)
inactive: [10] 103 % of control | [11] 100 % of control | [12] 94 % of control

Nc1ccc([N+](=O)[O-])cc1C(=O)NCCc1ccncc1
inactive: [1] 95 % of control | [2] 97 % of control | [3] 99 % of control

Nc1nccc2[nH]ccc12
inactive: dose: 12.5 mg/kg/injection, schedule: Q01DX001 (ip), vehicle: saline 103 % of control | dose: 25.0 mg/kg/injection, schedule: Q01DX001 (ip), vehicle: saline 102 % of control | dose: 50.0 mg/kg/injection, schedule: Q01DX001 (ip), vehicle: saline 112 % of control

COc1ccc(C(CC(=O)O)C(N)C(=O)O)cc1 (centres undefined)
inactive: dose: 50.0 mg/kg/injection, schedule: Q01DX009 (ip), vehicle: suspension in saline 88 % of control | dose: 100.0 mg/kg/injection, schedule: Q01DX009 (ip), vehicle: suspension in saline 87 % of control | dose: 200.0 mg/kg/injection, schedule: Q01DX009 (ip), vehicle: suspension in saline 95 % of control

CCCCCCCCCCNCCS
inactive: dose: 5.0 mg/kg/injection, schedule: Q01DX009 (ip), vehicle: saline 91 % of control | dose: 10.0 mg/kg/injection, schedule: Q01DX009 (ip), vehicle: saline 91 % of control | dose: 20.0 mg/kg/injection, schedule: Q01DX009 (ip), vehicle: saline 95 % of control
